Experimental data taken from ChEMBL document CHEMBL4346717, “1,2,4-Triazole-quinoline/quinolone hybrids as potential anti-bacterial agents” (Eur J Med Chem, 2019).
Values after ≈ are worked out from the molar mass of the structure shown.

Tests used:
Assay type in all cases: functional
Escherichia coli [1] = test: Antibacterial activity against Escherichia coli assessed as zone of inhibition at 10 mg/ml after 3 to 7 days by cup diffusion method; conditions: read-out: IZ
Pseudomonas aeruginosa [2] = test: Antibacterial activity against Pseudomonas aeruginosa after 3 to 7 days by cup diffusion method
[3] = tested on: Aggregatibacter actinomycetemcomitans; test: Antibacterial activity against Aggregatibacter actinomycetemcomitans ATCC 29524 assessed as zone of inhibition at 10 mg/ml after 3 to 7 days by cup diffusion method; conditions: read-out: IZ
Pseudomonas aeruginosa [4] = test: Antibacterial activity against Pseudomonas aeruginosa assessed as zone of inhibition at 10 mg/ml after 3 to 7 days by cup diffusion method; conditions: read-out: IZ
Mycolicibacterium phlei [5] = test: Antibacterial activity against Mycobacterium phlei clinical isolate after 3 to 7 days by cup diffusion method
Staphylococcus aureus [6] = test: Antibacterial activity against Staphylococcus aureus after 3 to 7 days by cup diffusion method
Bacillus subtilis [7] = test: Antibacterial activity against Bacillus subtilis after 3 to 7 days by cup diffusion method
Staphylococcus aureus [8] = test: Antibacterial activity against Staphylococcus aureus assessed as zone of inhibition at 10 mg/ml after 3 to 7 days by cup diffusion method; conditions: read-out: IZ
Bacillus subtilis [9] = test: Antibacterial activity against Bacillus subtilis assessed as zone of inhibition at 10 mg/ml after 3 to 7 days by cup diffusion method; conditions: read-out: IZ
Mycolicibacterium phlei [10] = test: Antibacterial activity against Mycobacterium phlei clinical isolate assessed as zone of inhibition at 10 mg/ml after 3 to 7 days by cup diffusion method; conditions: read-out: IZ
Escherichia coli [11] = test: Antibacterial activity against Escherichia coli after 3 to 7 days by cup diffusion method
[12] = tested on: Aggregatibacter actinomycetemcomitans; test: Antibacterial activity against Aggregatibacter actinomycetemcomitans ATCC 29524 after 3 to 7 days by cup diffusion method
Escherichia coli [13] = test: Antibacterial activity against Escherichia coli
Staphylococcus aureus [14] = test: Antibacterial activity against Staphylococcus aureus
[15] = Pseudomonas aeruginosa, read-out: MIC
[16] = Mycolicibacterium phlei, read-out: MIC
[17] = Staphylococcus aureus, read-out: MIC
[18] = Bacillus subtilis, read-out: MIC
[19] = Escherichia coli, read-out: MIC
[20] = Aggregatibacter actinomycetemcomitans, ATCC 29524, read-out: MIC

CCn1cc(-c2nc(NC(=O)c3ccc(Cl)cc3)n[nH]2)c(=O)c2cc(Br)c(C)nc21
zone of inhibition at 10000 µg/mL (Escherichia coli [1]): 20 to 40 mm
MIC (Pseudomonas aeruginosa [2]; [15]): 3.68 to 6.3 µM (≈ 1.79 to 3.07 µg/mL)
zone of inhibition at 10000 µg/mL [3]: 20 to 40 mm
zone of inhibition at 10000 µg/mL (Pseudomonas aeruginosa [4]): 20 to 40 mm
MIC (Mycolicibacterium phlei [5]; [16]): 3.68 to 6.3 µM (≈ 1.79 to 3.07 µg/mL)
MIC (Staphylococcus aureus [6]; [17]): 3.68 to 6.3 µM (≈ 1.79 to 3.07 µg/mL)
MIC (Bacillus subtilis [7]; [18]): 3.68 to 6.3 µM (≈ 1.79 to 3.07 µg/mL)
zone of inhibition at 10000 µg/mL (Staphylococcus aureus [8]): 20 to 40 mm
zone of inhibition at 10000 µg/mL (Bacillus subtilis [9]): 20 to 40 mm
zone of inhibition at 10000 µg/mL (Mycolicibacterium phlei [10]): 20 to 40 mm
MIC (Escherichia coli [11]; [19]): 3.68 to 6.3 µM (≈ 1.79 to 3.07 µg/mL)
MIC [12, 20]: 3.68 to 6.3 µM (≈ 1.79 to 3.07 µg/mL)

CCn1cc(-c2nc(NC(=O)c3ccc(F)cc3)n[nH]2)c(=O)c2cc(Br)c(C)nc21
zone of inhibition at 10000 µg/mL (Escherichia coli [1]): 20 to 40 mm
MIC (Pseudomonas aeruginosa [2]; [15]): 3.68 to 6.3 µM (≈ 1.73 to 2.97 µg/mL)
zone of inhibition at 10000 µg/mL [3]: 20 to 40 mm
zone of inhibition at 10000 µg/mL (Pseudomonas aeruginosa [4]): 20 to 40 mm
MIC (Mycolicibacterium phlei [5]; [16]): 3.68 to 6.3 µM (≈ 1.73 to 2.97 µg/mL)
MIC (Staphylococcus aureus [6]; [17]): 3.68 to 6.3 µM (≈ 1.73 to 2.97 µg/mL)
MIC (Bacillus subtilis [7]; [18]): 3.68 to 6.3 µM (≈ 1.73 to 2.97 µg/mL)
zone of inhibition at 10000 µg/mL (Staphylococcus aureus [8]): 20 to 40 mm
zone of inhibition at 10000 µg/mL (Bacillus subtilis [9]): 20 to 40 mm
zone of inhibition at 10000 µg/mL (Mycolicibacterium phlei [10]): 20 to 40 mm
MIC (Escherichia coli [11]; [19]): 3.68 to 6.3 µM (≈ 1.73 to 2.97 µg/mL)
MIC [12, 20]: 3.68 to 6.3 µM (≈ 1.73 to 2.97 µg/mL)

CCn1cc(-c2nc(/N=C/c3ccc(F)cc3)n[nH]2)c(=O)c2ccc(C)nc21
zone of inhibition at 10000 µg/mL (Escherichia coli [1]): 20 to 40 mm
MIC (Pseudomonas aeruginosa [2]): >=0.031 - 32 ug ml-1
zone of inhibition at 10000 µg/mL [3]: 20 to 40 mm
zone of inhibition at 10000 µg/mL (Pseudomonas aeruginosa [4]): 20 to 40 mm
MIC (Mycolicibacterium phlei [5]): >=0.031 - 32 ug ml-1
MIC (Staphylococcus aureus [6]): >=0.031 - 32 ug ml-1
MIC (Bacillus subtilis [7]): >=0.031 - 32 ug ml-1
zone of inhibition at 10000 µg/mL (Staphylococcus aureus [8]): 20 to 40 mm
zone of inhibition at 10000 µg/mL (Bacillus subtilis [9]): 20 to 40 mm
zone of inhibition at 10000 µg/mL (Mycolicibacterium phlei [10]): 20 to 40 mm
MIC (Escherichia coli [11]): >=0.031 - 32 ug ml-1
MIC [12]: >=0.031 - 32 ug ml-1

CCn1cc(-c2nc(/N=C/c3ccc(F)cc3)n[nH]2)c(=O)c2cc(Br)c(C)nc21
zone of inhibition at 10000 µg/mL (Escherichia coli [1]): 20 to 40 mm
MIC (Pseudomonas aeruginosa [2]; [15]): 3.68 to 6.3 µM (≈ 1.68 to 2.87 µg/mL)
zone of inhibition at 10000 µg/mL [3]: 20 to 40 mm
zone of inhibition at 10000 µg/mL (Pseudomonas aeruginosa [4]): 20 to 40 mm
MIC (Mycolicibacterium phlei [5]; [16]): 3.68 to 6.3 µM (≈ 1.68 to 2.87 µg/mL)
MIC (Staphylococcus aureus [6]; [17]): 3.68 to 6.3 µM (≈ 1.68 to 2.87 µg/mL)
MIC (Bacillus subtilis [7]; [18]): 3.68 to 6.3 µM (≈ 1.68 to 2.87 µg/mL)
zone of inhibition at 10000 µg/mL (Staphylococcus aureus [8]): 20 to 40 mm
zone of inhibition at 10000 µg/mL (Bacillus subtilis [9]): 20 to 40 mm
zone of inhibition at 10000 µg/mL (Mycolicibacterium phlei [10]): 20 to 40 mm
MIC (Escherichia coli [11]; [19]): 3.68 to 6.3 µM (≈ 1.68 to 2.87 µg/mL)
MIC [12, 20]: 3.68 to 6.3 µM (≈ 1.68 to 2.87 µg/mL)

CCn1cc(-c2nc(/N=C/c3ccc(OC)cc3)n[nH]2)c(=O)c2cc(Br)c(C)nc21
zone of inhibition at 10000 µg/mL (Escherichia coli [1]): 20 to 40 mm
MIC (Pseudomonas aeruginosa [2]; [15]): 3.68 to 6.3 µM (≈ 1.72 to 2.94 µg/mL)
zone of inhibition at 10000 µg/mL [3]: 20 to 40 mm
zone of inhibition at 10000 µg/mL (Pseudomonas aeruginosa [4]): 20 to 40 mm
MIC (Mycolicibacterium phlei [5]; [16]): 3.68 to 6.3 µM (≈ 1.72 to 2.94 µg/mL)
MIC (Staphylococcus aureus [6]; [17]): 3.68 to 6.3 µM (≈ 1.72 to 2.94 µg/mL)
MIC (Bacillus subtilis [7]; [18]): 3.68 to 6.3 µM (≈ 1.72 to 2.94 µg/mL)
zone of inhibition at 10000 µg/mL (Staphylococcus aureus [8]): 20 to 40 mm
zone of inhibition at 10000 µg/mL (Bacillus subtilis [9]): 20 to 40 mm
zone of inhibition at 10000 µg/mL (Mycolicibacterium phlei [10]): 20 to 40 mm
MIC (Escherichia coli [11]; [19]): 3.68 to 6.3 µM (≈ 1.72 to 2.94 µg/mL)
MIC [12, 20]: 3.68 to 6.3 µM (≈ 1.72 to 2.94 µg/mL)

CN1CCN(Cn2nc3c(F)cc4c(=O)c(C(=O)O)cn(C5CC5)c4n3c2=S)CC1
MIC (Escherichia coli [13]): 0.125 to 8 µg/mL (≈ 0.289 to 18.5 µM)
MIC (Staphylococcus aureus [14]): 0.125 to 8 µg/mL (≈ 0.289 to 18.5 µM)

O=C(O)c1cn(C2CC2)c2c(cc(F)c3nn(CN4CCCC4)c(=S)n32)c1=O
MIC (Escherichia coli [13]): 0.125 to 8 µg/mL (≈ 0.31 to 19.8 µM)
MIC (Staphylococcus aureus [14]): 0.125 to 8 µg/mL (≈ 0.31 to 19.8 µM)

CCN1CCN(Cn2nc3c(F)cc4c(=O)c(C(=O)O)cn(C5CC5)c4n3c2=S)CC1
MIC (Escherichia coli [13]): 0.125 to 8 µg/mL (≈ 0.28 to 17.9 µM)
MIC (Staphylococcus aureus [14]): 0.125 to 8 µg/mL (≈ 0.28 to 17.9 µM)

CC1CNCCN1Cn1nc2c(F)cc3c(=O)c(C(=O)O)cn(C4CC4)c3n2c1=S (configuration not stated)
MIC (Escherichia coli [13]): 0.125 to 0.5 µg/mL (≈ 0.289 to 1.16 µM)
MIC (Staphylococcus aureus [14]): 0.125 to 0.5 µg/mL (≈ 0.289 to 1.16 µM)

CCn1cc(-c2nc(/N=C/c3ccccc3O)n[nH]2)c(=O)c2ccc(C)nc21
zone of inhibition at 10000 µg/mL (Escherichia coli [1]): 20 to 40 mm
MIC (Pseudomonas aeruginosa [2]): >=0.031 - 32 ug ml-1
zone of inhibition at 10000 µg/mL [3]: 20 to 40 mm
zone of inhibition at 10000 µg/mL (Pseudomonas aeruginosa [4]): 20 to 40 mm
MIC (Mycolicibacterium phlei [5]): >=0.031 - 32 ug ml-1
MIC (Bacillus subtilis [7]): >=0.031 - 32 ug ml-1
zone of inhibition at 10000 µg/mL (Staphylococcus aureus [8]): 20 to 40 mm
zone of inhibition at 10000 µg/mL (Bacillus subtilis [9]): 20 to 40 mm
zone of inhibition at 10000 µg/mL (Mycolicibacterium phlei [10]): 20 to 40 mm
MIC (Escherichia coli [11]): >=0.031 - 32 ug ml-1
MIC [12]: >=0.031 - 32 ug ml-1

O=C(O)c1cn(C2CC2)c2c(cc(F)c3nn(CN4CCOCC4)c(=S)n32)c1=O
MIC (Escherichia coli [13]): 0.125 to 8 µg/mL (≈ 0.298 to 19.1 µM)
MIC (Staphylococcus aureus [14]): 0.125 to 8 µg/mL (≈ 0.298 to 19.1 µM)

CN(C)Cn1nc2c(F)cc3c(=O)c(C(=O)O)cn(C4CC4)c3n2c1=S
MIC (Escherichia coli [13]): 4 to 32 µg/mL (≈ 10.6 to 84.8 µM)
MIC (Staphylococcus aureus [14]): 4 to 32 µg/mL (≈ 10.6 to 84.8 µM)

CCN(CC)Cn1nc2c(F)cc3c(=O)c(C(=O)O)cn(C4CC4)c3n2c1=S
MIC (Escherichia coli [13]): 4 to 32 µg/mL (≈ 9.87 to 78.9 µM)
MIC (Staphylococcus aureus [14]): 4 to 32 µg/mL (≈ 9.87 to 78.9 µM)

O=C(O)c1cn(C2CC2)c2c(cc(F)c3nn(CN4CCCCC4)c(=S)n32)c1=O
MIC (Escherichia coli [13]): 0.125 to 8 µg/mL (≈ 0.299 to 19.2 µM)
MIC (Staphylococcus aureus [14]): 0.125 to 8 µg/mL (≈ 0.299 to 19.2 µM)
